Results published in US5830855A, “Lipodepsipeptides as antifungal and fungicidal agents” (priority 1996, dated 1998).
Converted amounts (≈) assume the structure as drawn. Numbered stars: 1 amine (or outer) side, 2 acyl side, 3 side chain; on linkers, the order of the positions; unused ones are H or OH. Bridge positions count the residues as written; N and C are the ends. Square brackets hold non-standard residues; d marks the D form. Peptide text beside a SMILES is read from it. * marks the point of attachment. ξ: configuration not given here. ξAsp(3ξ-OH) = NC(C(=O)O)C(O)C(=O)O; X3 = O=C(C(N[*:1])C(O)CCl)[*:2]; X2 = CCCCCCCCCCCC(O)CC(=O)*; Orn = NCCC[CH](N)C(=O)O; hSer = N[CH](CCO)C(=O)O; Dab = NCC[CH](N)C(=O)O; Dhb = C/C=C(\N)C(=O)O

What was measured:
Candida lusitaniae [1] = test: Broth microdilution MIC; type: cell-based; conditions: Table 1 (MICs), 2 isolates, 48 hr
Experimental: (§1) Medium: Liquid RPMI 1640 (RPMI) medium with L-glutamine and without sodium bicarbonate (Sigma Chemical Co., R-6504; St. Louis, Mo.) buffered with 0.165M MOPS (34.54 g/liter) was used for in vitro antifungal tests. The medium was adjusted to pH 7.0 with 10M NaOH and filter sterilized.
(§2) Lipodepsipeptide Dilutions: All stock drug solution concentrations were at least 10-fold higher than the highest concentration tested. AmB, ketoconazole, and the test compounds (SR-E, ST-B, and SS-A) were dissolved in sterile distilled water, 0.2N HCl, and 0.001N HCl, respectively. Each stock solution was diluted to 2× the highest concentration of drug tested with RPMI. Two-fold dilutions were made with RPMI medium.
(§3) Preparation of Inoculum Suspensions: On Sabouraud dextose agar (SDA; BBL, Becton and Dickinson and Co., Cockeysville, Md.) all isolates were subcultured at least twice before use to ensure purity and viability. Candida spp. and Saccharomyces cerevisiae were grown for 24 hr at 35° C. Isolates of Cryptococcus neoformans were grown for 48 hr at 35° C. Yeast cells from at least five 1-mm-diameter colonies were suspended in 5 ml of sterile 0.85% saline. The resulting suspension was vortexed for 15 sec. The turbidity of each mixed suspension was measured at 530 nm and adjusted to 1×10^6 to 5×10^6 CFU/ml by the NCCLS spectrophotometric method described by National Committee for Clinical Laboratory Standards. 1992. Reference method for broth dilution antifungal susceptibility testing of yeasts; proposed standard, NCCLS document M27-P (ISBN 1-56238-186-5). NCCLS, Villanova. The final transmission of each yeast suspension ranged from 85-87%.
(§4) Aspergillus fumigatus and Mucor spp. were grown for 1 wk at 35° C. The dermatophytes, Microsporum spp. and Trichophyton spp., were grown for two wk at 30° C. Fungal spores were washed from the plates of all good spore formers (A. fumigatus, Mucor spp., Microsporum canis and Trichophyton spp.) by placing 5 ml of 0.85% saline with 0.2% Tween 80 on the plates and mixing with an inoculating loop. The spore/mycelium suspension was drawn off with a pipette and allowed to settle for at least 5 min. For the poor spore-forming Microsporum audouinii, the procedure was the same except the spore/mycelial suspension was homogenized with a ground glass tissue homogenizer and then allowed to settle for at least 5 min. A small amount of the supernatant was transferred to 5 ml of sterile saline and vortexed. The stock suspensions of all filamentous fungi were measured at 530 nm and adjusted to 85-87% transmission. The concentration (1×10^6 to 5×10^6 CFU/ml) was determined by hemacytometer count or plate count on SDA. All stock suspensions were diluted 1000-fold with RPMI, or 2× the final desired test inocula. The 2× inoculum was diluted 1:1 when the wells were inoculated, and the desired inoculum size was achieved.
(§5) Broth Microdilution Test: Broth microdilution tests were performed using sterile, disposable, multiwell microdilution plates (96 round U-bottom wells) (Falcon 3077; Becton and Dickinson Labware, Lincoln Park, N.J.). The drugs (2× concentrations) were dispensed into the wells of rows number 1 to 10 of the microdilution plates in 100 μl volumes from highest drug concentration to lowest drug concentration. Each well was inoculated with 100 μl of the corresponding 2× concentrated fungal suspension. The wells of row 11 contained the inoculum with drug-free media as a positive growth control and the wells of row 12 contained uninoculated-drug-free medium as a sterility control.
(§6) Incubation and Scoring of MIC: All cultures were incubated without shaking at the temperature used during subculture. Incubation times were 48 hr for Candida spp., S. cerevisiae, A. fumigatus, and Mucor spp; 72 hr for C. neoformans; and 7 days for Microsporum and Trichophyton spp. […]

Microsporum spp. [2] = test: Broth microdilution MIC; type: cell-based; conditions: Table 1 (MICs), 2 isolates, 7 days
Experimental: as §1, §2, §3, §4, §5, §6

Trichophyton spp. [3] = test: Broth microdilution MIC; type: cell-based; conditions: Table 1 (MICs), 3 isolates, 7 days
Experimental: as §1, §2, §3, §4, §5, §6

Candida krusei [4] = test: Broth microdilution MIC; type: cell-based; conditions: Table 1 (MICs), 2 isolates, 48 hr
Experimental: as §1, §2, §3, §4, §5, §6

Candida tropicalis [5] = test: Broth microdilution MIC; type: cell-based; conditions: Table 1 (MICs); Candida tropicalis, 2 isolates; 48 hr
Experimental: as §1, §2, §3, §4, §5, §6

Candida parapsilosis [6] = test: Broth microdilution MIC; type: cell-based; conditions: Table 1 (MICs), 2 isolates, 48 hr
Experimental: as §1, §2, §3, §4, §5, §6

Candida albicans [7] = test: Broth microdilution MIC; type: cell-based; conditions: for MIC range: Table 1 (MICs), Candida albicans, 20 isolates, RPMI pH 7.0, 48 hr, Ktz read at score 2, others at score 0
Experimental: as §1, §2, §3, §4, §5, §6

Candida kefyr [8] = test: Broth microdilution MIC; type: cell-based; conditions: Table 1 (MICs), 1 isolate, 48 hr
Experimental: as §1, §2, §3, §4, §5, §6

Cryptococcus neoformans [9] = test: Broth microdilution MIC; type: cell-based; conditions: Table 1 (MICs); Cryptococcus neoformans, 14 isolates; 72 hr
Experimental: as §1, §2, §3, §4, §5, §6

Candida rugosa [10] = test: Broth microdilution MIC; type: cell-based; conditions: Table 1 (MICs); Candida rugosa, 2 isolates; 48 hr
Experimental: as §1, §2, §3, §4, §5, §6

Saccharomyces cerevisiae [11] = test: Broth microdilution MIC; type: cell-based; conditions: Table 1 (MICs), 1 strain tested more than once (control ATCC 36375), 48 hr
Experimental: as §1, §2, §3, §4, §5, §6

fungal isolates = test: Fungicidal activity (MFC), fungal isolates overall; type: cell-based, fungi; conditions: Table 2 organisms
Experimental: as §1, §2
Preparation of Inoculum Suspensions: On Sabouraud dextose agar (SDA; BBL, Becton and Dickinson and Co., Cockeysville, Md.) all isolates were subcultured at least twice before use to ensure purity and viability. […] The turbidity of each mixed suspension was measured at 530 nm and adjusted to 1×10^6 to 5×10^6 CFU/ml by the NCCLS spectrophotometric method described by National Committee for Clinical Laboratory Standards. […]
Aspergillus fumigatus and Mucor spp. were grown for 1 wk at 35° C. […] The stock suspensions of all filamentous fungi were measured at 530 nm and adjusted to 85-87% transmission. The concentration (1×10^6 to 5×10^6 CFU/ml) was determined by hemacytometer count or plate count on SDA. […]

Candida lusitaniae [12] = test: Minimum Fungicidal Concentration (MFC); type: cell-based; conditions: Table 2, 2 isolates, 24 hr
Experimental: as §1, §2, §3, §4, §5, §6

Candida krusei [13] = test: Minimum Fungicidal Concentration (MFC); type: cell-based; conditions: Table 2, 2 isolates, 24 hr
Experimental: as §1, §2, §3, §4, §5, §6

Candida tropicalis [14] = test: Minimum Fungicidal Concentration (MFC); type: cell-based; conditions: Table 2, 2 isolates, 24 hr
Experimental: as §1, §2, §3, §4, §5, §6

Candida parapsilosis [15] = test: Minimum Fungicidal Concentration (MFC); type: cell-based; conditions: Table 2, 2 isolates, 24 hr
Experimental: as §1, §2, §3, §4, §5, §6

Candida kefyr [16] = test: Minimum Fungicidal Concentration (MFC); type: cell-based; conditions: Table 2, 1 isolate, 24 hr
Experimental: as §1, §2, §3, §4, §5, §6

Candida rugosa [17] = test: Minimum Fungicidal Concentration (MFC); type: cell-based; conditions: Table 2, 2 isolates, 24 hr
Experimental: as §1, §2, §3, §4, §5, §6

Saccharomyces cerevisiae [18] = test: Minimum Fungicidal Concentration (MFC); type: cell-based; conditions: Table 2, 1 strain tested more than once, 24 hr
Experimental: as §1, §2, §3, §4, §5, §6

Aspergillus fumigatus [19] = test: Broth microdilution MIC; type: cell-based; conditions: Table 1 (MICs), 16 isolates, 48 hr
Experimental: as §1, §2, §3, §4, §5, §6

Microsporum spp. [20] = test: Minimum Fungicidal Concentration (MFC); type: cell-based; conditions: Table 2, 2 isolates, 7 d
Experimental: as §1, §2, §3, §4, §5, §6

Aspergillus fumigatus [21] = test: Minimum Fungicidal Concentration (MFC); type: cell-based; conditions: Table 2, 16 isolates, 48 hr
Experimental: as §1, §2, §3, §4, §5, §6

Trichophyton spp. [22] = test: Minimum Fungicidal Concentration (MFC); type: cell-based; conditions: Table 2, 3 isolates, 7 d
Experimental: as §1, §2, §3, §4, §5, §6

Candida albicans [23] = test: Minimum Fungicidal Concentration (MFC); type: cell-based; conditions: Table 2, 20 isolates, subculture on drug-free SDA 24 hr
Experimental: as §1, §2, §3, §4, §5, §6

Cryptococcus neoformans [24] = test: Minimum Fungicidal Concentration (MFC); type: cell-based; conditions: Table 2, 14 isolates, 48 hr
Experimental: as §1, §2, §3, §4, §5, §6

SMILES	MIC range (Candida lusitaniae [1])	MIC range (Microsporum spp. [2])	MIC range (Trichophyton spp. [3])	MIC (μg/ml) range (Candida krusei [4])	MIC (μg/ml) range (Candida tropicalis [5])	MIC range (Candida parapsilosis [6])	MIC range (Candida albicans [7])	MIC (μg/ml) range (Candida kefyr [8])	MIC range (Cryptococcus neoformans [9])	MIC range (Candida rugosa [10])	MFC (μg/ml) range (Saccharomyces cerevisiae [11])	MFC (μg/ml) range (Candida lusitaniae [12])	MFC (μg/ml) range (Candida krusei [13])	MFC (μg/ml) range (Candida tropicalis [14])	MFC (μg/ml) range (Candida parapsilosis [15])	MFC (μg/ml) range (Candida kefyr [16])	MFC (μg/ml) range (Saccharomyces cerevisiae [18])	other results
CC(=O)N1CCN(c2ccc(OCC3COC(Cn4ccnc4)(c4ccc(Cl)cc4Cl)O3)cc2)CC1 (stereo not shown) [Ktz, ketoconazole, reference compound]	0.02 µg/mL (≈ 0.0376 µM)	0.8 to 1.6 µg/mL	0.4 to 3.1 µg/mL	0.15 µg/mL (≈ 0.282 µM)	0.08 to 0.6 µg/mL	0.02 µg/mL (≈ 0.0376 µM)	0.02 to 10 µg/mL	0.02 µg/mL (≈ 0.0376 µM)	0.04 to 0.6 µg/mL	0.02 µg/mL (≈ 0.0376 µM)	0.15 µg/mL (≈ 0.282 µM)	≤ 0.02 µg/mL	0.15 µg/mL (≈ 0.282 µM)	2.5 to 10 µg/mL	0.04 µg/mL (≈ 0.0753 µM)	1.25 µg/mL (≈ 2.35 µM)	0.6 to 1.25 µg/mL	MIC, one strain of C. albicans (Candida albicans [7]; one strain of C. albicans resistant to ketoconazole): 10 µg/mL; fungicidal activity (fungal isolates): fungicidal activity only against C. krusei; MFC (μg/ml) range (Candida rugosa [17]): ≤0.02 to 0.08 µg/mL
C/C=C1\NC(=O)C(C(C)O)NC(=O)C(CCCN)NC(=O)C(CCO)NC(=O)C(CCN)NC(=O)C(CCN)NC(=O)C(NC(=O)CC(O)CCCCCCCCCCC)COC(=O)C(C(O)CCl)NC(=O)C(C(O)C(=O)O)NC1=O (stereo not shown) [SS-A, syringostatin-A] (X2-S[Dab][Dab][hSer][Orn]T[Dhb][ξAsp(3ξ-OH)][X3]; ester 1-C; configuration not given here)	5 µg/mL (≈ 4.24 µM)	2.5 to 5 µg/mL	2.5 to 5 µg/mL	10 µg/mL (≈ 8.48 µM)	2.5 to 5 µg/mL	2.5 to 5 µg/mL	2.5 to 5 µg/mL	2.5 µg/mL (≈ 2.12 µM)	2.5 to 10 µg/mL	10 to 20 µg/mL	2.5 µg/mL (≈ 2.12 µM)	5 µg/mL (≈ 4.24 µM)	10 to 20 µg/mL	5 µg/mL (≈ 4.24 µM)	2.5 to 10 µg/mL	2.5 µg/mL (≈ 2.12 µM)	5 µg/mL (≈ 4.24 µM)	MIC range (Aspergillus fumigatus [19]): 5 to 40 µg/mL; MFC (μg/ml) range (Microsporum spp. [20]): 5 µg/mL (≈ 4.24 µM); MFC (μg/ml) range (Aspergillus fumigatus [21]): 5 to 40 µg/mL; MFC (μg/ml) range (Trichophyton spp. [22]): 5 µg/mL (≈ 4.24 µM); MFC (μg/ml) range (Candida albicans [23]): 2.5 to 10 µg/mL; MFC (μg/ml) range (Cryptococcus neoformans [24]): 2.5 to 10 µg/mL
